Laboratory results: DBAASP
In brackets after ≈: the same amount, converted by molar mass. One block for each compound: values may come before it.

Key:
Assay in all cases: ≥ marks a high value that may be exact or a test limit, other limits are often not marked, values filed in µg/mL are converted to µM
[1] = tested on: Streptococcus mitis ATCC 903
[2] = tested on: Veillonella atypica PK1910
[3] = tested on: Streptococcus mutans
[4] = tested on: Streptococcus sanguinis NY101
[5] = tested on: Lacticaseibacillus casei ATCC 4646
[6] = tested on: Streptococcus gordonii Challis DL1
[7] = tested on: Batrachochytrium dendrobatidis
[8] = tested on: Staphylococcus epidermidis
[9] = tested on: Bacillus cereus
[10] = tested on: Listeria innocua
[11] = tested on: Micrococcus luteus
[12] = tested on: Pasteurella multocida
[13] = tested on: Leuconostoc lactis
[14] = tested on: Escherichia coli
[15] = tested on: Streptococcus uberis
[16] = tested on: Staphylococcus aureus
[17] = tested on: Staphylococcus aureus ATCC 25923
[18] = tested on: Bacillus subtilis ATCC 6633
[19] = tested on: Escherichia coli ATCC 25922
[20] = tested on: Candida albicans ATCC 20032
[21] = tested on: Shigella dysenteriae ATCC 9752
[22] = tested on: Micrococcus luteus ATCC 10240
[23] = tested on: Klebsiella pneumoniae ATCC 10031
[24] = tested on: Salmonella enterica subsp. enterica serovar Typhimurium ATCC 14028
[25] = tested on: Staphylococcus epidermidis ATCC 12228
[26] = tested on: Staphylococcus aureus ATCC 6538P
[27] = tested on: Staphylococcus aureus TK784
[28] = tested on: Pseudomonas aeruginosa ATCC 27853
[29] = tested on: Staphylococcus aureus NCTC 8325

Structure (SMILES): CC(C)C[C@H](NC(=O)CNC(=O)CNC(=O)CNC(=O)[C@H](Cc1ccccc1)NC(=O)[C@H](Cc1c[nH]c2ccccc12)NC(=O)[C@H](CCCN=C(N)N)NC(=O)[C@H](Cc1c[nH]c2ccccc12)NC(=O)[C@H](CCCN=C(N)N)NC(=O)[C@H](Cc1c[nH]c2ccccc12)NC(=O)[C@@H](N)CCCN=C(N)N)C(=O)N[C@@H](CCCCN)C(=O)N[C@@H](CCCN=C(N)N)C(=O)N[C@@H](Cc1ccccc1)C(=O)N[C@@H](CC(C)C)C(=O)N[C@@H](CCCCN)C(=O)N[C@@H](Cc1c[nH]c2ccccc12)C(=O)N[C@@H](Cc1ccccc1)C(=O)N[C@@H](CCCCN)C(=O)N[C@@H](CCCN=C(N)N)C(=O)N[C@@H](Cc1ccccc1)C(N)=O [RWRWRWFGGGLKRFLKWFKRF]
MIC [1]: 22 µM (≈ 64 µg/mL)
MIC [2]: 5.49 µM (≈ 16 µg/mL)
MIC [3]: 2.74 µM (≈ 8 µg/mL)
MIC [4]: 5.49 µM (≈ 16 µg/mL)
MIC [5]: 2.74 µM (≈ 8 µg/mL)
MIC [6]: 11 µM (≈ 32 µg/mL)

Structure (SMILES): CC[C@H](C)[C@H](NC(=O)CN)C(=O)NCC(=O)NCC(=O)N[C@@H](CCCCN)C(=O)N[C@H](C(=O)N[C@@H](CC(C)C)C(=O)NCC(=O)NCC(=O)N[C@@H](CC(C)C)C(=O)N[C@@H](CCCN=C(N)N)C(=O)N[C@H](C(=O)N[C@@H](C)C(=O)N[C@@H](CC(C)C)C(=O)N[C@@H](CCCCN)C(=O)NCC(=O)N[C@@H](C)C(=O)N[C@@H](C)C(=O)N[C@@H](CCCCN)C(=O)N[C@@H](CCC(=O)O)C(=O)N[C@@H](CC(C)C)C(=O)N[C@@H](C)C(=O)N[C@@H](C)C(=O)N[C@H](C(=O)N[C@@H](Cc1ccc(O)cc1)C(=O)N[C@@H](CC(C)C)C(=O)N[C@@H](Cc1cnc[nH]1)C(N)=O)[C@@H](C)O)[C@@H](C)O)[C@@H](C)CC [GIGGKILGGLRTALKGAAKELAATYLH]
MIC [17]: 1.75 µM (≈ 4.7 µg/mL)
MIC [18]: 28 µM (≈ 75 µg/mL)
MIC [19]: 3.51 µM (≈ 9.4 µg/mL)
MIC [20]: ≥ 37.3 µM

Structure (SMILES): CC(C)C[C@H](NC(=O)[C@H](CCCCN)NC(=O)[C@H](CCCCN)NC(=O)[C@H](CC(C)C)NC(=O)[C@H](Cc1c[nH]c2ccccc12)NC(=O)[C@H](CCCCN)NC(=O)[C@H](CC(C)C)NC(=O)[C@H](CC(C)C)NC(=O)[C@H](CCCCN)NC(=O)[C@H](CCCCN)NC(=O)[C@@H](N)CC(C)C)C(N)=O [LKKLLKWLKKL]
MIC [21]: 1.42 µM (≈ 2 µg/mL)
MIC [22]: 2.84 µM (≈ 4 µg/mL)
MIC [18]: 1.42 µM (≈ 2 µg/mL)
MIC [23]: 1.42 µM (≈ 2 µg/mL)
MIC [19]: 1.42 µM (≈ 2 µg/mL)
MIC [24]: 2.84 µM (≈ 4 µg/mL)
MIC [25]: 1.42 µM (≈ 2 µg/mL)
MIC [26]: 1.42 µM (≈ 2 µg/mL)
MIC [27]: 11.3 µM (≈ 16 µg/mL)
MIC [28]: 5.67 µM (≈ 7.99 µg/mL)

Structure (SMILES): CC[C@H](C)[C@H](NC(=O)CN)C(=O)N[C@@H](CC(C)C)C(=O)N[C@@H](CO)C(=O)N[C@H](C(=O)N[C@@H](Cc1ccccc1)C(=O)N[C@@H](CCCCN)C(=O)NCC(=O)N[C@@H](CC(C)C)C(=O)N[C@@H](C)C(=O)N[C@@H](CCCCN)C(=O)NCC(=O)N[C@H](C(=O)N[C@@H](C)C(=O)N[C@@H](CCCCN)C(=O)N[C@@H](CC(=O)O)C(=O)N[C@@H](CC(C)C)C(=O)N[C@@H](C)C(=O)NCC(=O)N[C@@H](CC(N)=O)C(=O)N[C@@H](CC(C)C)C(=O)N[C@@H](CC(C)C)C(=O)N[C@@H](CC(=O)O)C(=O)N[C@@H](CCCCN)C(=O)N[C@@H](Cc1ccccc1)C(=O)N[C@@H](CCCCN)C(=O)N[C@H]1CSSC[C@@H](C(=O)O)NC(=O)CNC(=O)[C@H]([C@@H](C)O)NC(=O)[C@H]([C@@H](C)CC)NC(=O)[C@H](CCCCN)NC1=O)C(C)C)[C@@H](C)O [GILSTFKGLAKGVAKDLAGNLLDKFKCKITGC]
MIC [19]: 7 µM (≈ 23.2 µg/mL)
MIC [7]: 25 µM (≈ 82.7 µg/mL)
MIC [29]: 27 µM (≈ 89.3 µg/mL)

Structure (SMILES): CC(C)C[C@H](NC(=O)[C@H](Cc1c[nH]c2ccccc12)NC(=O)[C@H](CCCCN)NC(=O)[C@H](CCCCN)NC(=O)[C@H](CC(C)C)NC(=O)[C@H](Cc1c[nH]c2ccccc12)NC(=O)[C@H](CCCCN)NC(=O)[C@@H](N)CC(C)C)C(=O)N[C@@H](CCCCN)C(N)=O [LKWLKKWLK]
MIC [21]: ≥ 64.4 µM
MIC [22]: ≥ 64.4 µM
MIC [18]: ≥ 32.2 µM
MIC [23]: ≥ 64.4 µM
MIC [19]: 32.2 µM (≈ 40 µg/mL)
MIC [24]: > 64.4 µM
MIC [25]: 32.2 µM (≈ 40 µg/mL)
MIC [26]: 8.05 µM (≈ 9.99 µg/mL)
MIC [27]: ≥ 64.4 µM
MIC [28]: 32.2 µM (≈ 40 µg/mL)

The remaining lines, values ahead:

MIC [1]: 21.2 µM (≈ 64 µg/mL)
MIC [2]: 2.65 µM (≈ 8 µg/mL)
MIC [3]: 1.87 µM (≈ 5.66 µg/mL)
MIC [4]: 2.65 µM (≈ 8 µg/mL)
MIC [5]: 2.65 µM (≈ 8 µg/mL)
MIC [6]: 5.3 µM (≈ 16 µg/mL)
Structure (SMILES): NCCCC[C@H](NC(=O)[C@H](Cc1ccccc1)NC(=O)CNC(=O)CNC(=O)CNC(=O)[C@H](Cc1ccccc1)NC(=O)[C@H](Cc1c[nH]c2ccccc12)NC(=O)[C@H](CCCN=C(N)N)NC(=O)[C@H](Cc1c[nH]c2ccccc12)NC(=O)[C@H](CCCN=C(N)N)NC(=O)[C@H](Cc1c[nH]c2ccccc12)NC(=O)[C@@H](N)CCCN=C(N)N)C(=O)N[C@@H](CCCCN)C(=O)N[C@@H](Cc1ccccc1)C(=O)N[C@@H](Cc1c[nH]c2ccccc12)C(=O)N[C@@H](CCCCN)C(=O)N[C@@H](Cc1c[nH]c2ccccc12)C(=O)N[C@@H](Cc1ccccc1)C(=O)N[C@@H](CCCN=C(N)N)C(=O)N[C@@H](CCCN=C(N)N)C(=O)N[C@@H](Cc1ccccc1)C(N)=O [RWRWRWFGGGFKKFWKWFRRF]

MIC [7]: ≥ 32.2 µM
Structure (SMILES): CC[C@H](C)[C@H](NC(=O)[C@@H](NC(=O)[C@@H]1CCCN1C(=O)[C@H](CC(C)C)NC(=O)[C@@H](N)Cc1ccccc1)[C@@H](C)CC)C(=O)N[C@@H](C)C(=O)N[C@@H](CO)C(=O)N[C@@H](CC(C)C)C(=O)N[C@@H](CC(C)C)C(=O)N[C@@H](CO)C(=O)N[C@@H](CCCCN)C(=O)N[C@@H](CC(C)C)C(=O)N[C@@H](CC(C)C)C(N)=O [FLPIIASLLSKLL]

MIC [8]: 1.77 µM (≈ 3 µg/mL)
MIC [9]: ≥ 58.9 µM
MIC [10]: 7.07 µM (≈ 12 µg/mL)
MIC [11]: 14.7 µM (≈ 25 µg/mL)
MIC [12]: ≥ 58.9 µM
MIC [13]: 0.883 µM (≈ 1.5 µg/mL)
MIC [14]: 58.9 µM (≈ 99.9 µg/mL)
MIC [15]: 7.07 µM (≈ 12 µg/mL)
MIC [7]: ≥ 141 µM
MIC [16]: 14.7 µM (≈ 25 µg/mL)
Structure (SMILES): CC[C@H](C)[C@H](NC(=O)[C@@H](NC(=O)[C@H](C)NC(=O)[C@H](C)NC(=O)[C@@H](NC(=O)[C@H](CCCCN)NC(=O)[C@H](CCCCN)NC(=O)[C@@H](NC(=O)[C@@H](NC(=O)[C@H](C)NC(=O)[C@H](Cc1ccccc1)NC(=O)[C@H](CC(C)C)NC(=O)CN)C(C)C)[C@@H](C)CC)C(C)C)C(C)C)C(=O)N[C@@H](CCCCN)C(=O)N[C@@H](CCCCN)C(=O)N[C@@H](CC(C)C)C(N)=O [GLFAVIKKVAAVIKKL]

MIC [17]: 11.7 µM (≈ 24.9 µg/mL)
MIC [20]: 23.4 µM (≈ 49.8 µg/mL)
Structure (SMILES): CC[C@H](C)[C@@H]1NC(=O)[C@H](CO)NC(=O)[C@H](CCCCN)NC(=O)[C@H]([C@@H](C)O)NC(=O)[C@H](Cc2c[nH]c3ccccc23)NC(=O)[C@@H](NC(=O)CNC(=O)[C@H](CCCCN)NC(=O)[C@H](CC(C)C)NC(=O)[C@H](C)NC(=O)[C@H](C)N)CSSC[C@@H](C(=O)N[C@@H](CO)C(=O)NCC(=O)N[C@@H](CCCCN)C(=O)N[C@@H](CCCN=C(N)N)C(=O)O)NC(=O)[C@@H]2CCCN2C(=O)[C@H](CCCCN)NC(=O)[C@@H]2CCCN2C(=O)[C@@H]2CCCN2C1=O [AALKGCWTKSIPPKPCSGKR]
